Blank lines part the entries; values can stand above or below the compound they belong to.
How the values were obtained:
p48 SIP kinase [1] = test: In-gel kinase activity assay (MBP substrate) in extracts of treated tobacco suspension cells: activation of p48 SIP kinase; assay type: cell-based, Nicotiana tabacum cv Xanthi nc; conditions: tobacco suspension cells; for activation of 48 kDa (p48 SIP) kinase: 250 μM, MBP substrate; for duration of SIP kinase activation relative to SA: data not shown for analogues
Method: The cell suspension culture was derived from callus tissue originated from leaves of Nicotiana tabacum cv Xanthi nc and grown in MS medium supplemented with 1 mg/L α-naphthaleneacetic acid, 0.1 mg/L 2,4-dichlorophenoxyacetic acid, 0.1 mg/L benzyladenine, and 3% sucrose. Log phase cells were used three days after a 1:10 dilution. Treatment with H2 O2, SA and its analogues was performed in the original flasks in the dark to avoid any stresses associated with transfer. At various times, 10 mL cells (approximately 0.2 to 0.3 g fresh weight of cells) were harvested by filtration. The cells were quickly frozen in liquid nitrogen and stored at -80° C. until analysis.
Leaf discs were first ground to a fine powder in 1.5 ml microcentrifuge tubes using small plastic pestles. After adding 0.25 mL extraction buffer (100 mM Hepes, pH 7.5, 5 mM EDTA, 5 mM EGTA, 10 mM DTT, 10 mM Na3 VO4, 10 mM NaF, 50 mM β-glycerolphosphate, 1 mM phenylmethylsulfonyl fluoride, 5 μg/mL antipain, 5 μg/mL aprotinin, 5 μg/mL leupeptin, 10% glycerol, 7.5% polyvinylpolypyrrolidone), the mixture was sonicated for 15 seconds with a W-375 Sonicator (Heat System-Ultrasonics, Inc., N.Y.) fitted with a microprobe at setting 4 and 80% duty cycle. To prepare extracts from treated cells, cells were mixed with two volumes (w/v) of extraction buffer and were then sonicated twice for 15 seconds each in 1.5 mL microcentrifuge tube. After centrifugation at 13,000 rpm for 20 minutes, supernatants were transferred into clean tubes, quickly frozen in liquid nitrogen and stored at -80° C.
The in-gel kinase assay was performed as described previously (Zhang et al., 1993). Extracts containing 10 μg protein were electrophoresed on 10% SDS-polyacrylamide gels imbedded with either 1 mg/mL of casein, 1 mg/mL histone (Type III-SS, Sigma, MO), 1 mg/mL BSA, or 0.25 mg/mL of MBP in the separating gel as substrate for the kinase. After electrophoresis, SDS was removed by washing the gel with washing buffer (25 mM Tris, pH 7.5, 0.5 mM DTT, 0.1 mM Na3 VO4, 5 mM NaF, 0.5 mg/mL BSA, 0.1% Triton X-100 [v/v]). The buffer was changed three times, each for 30 minutes at room temperature. The kinases were allowed to renature in 25 mM Tris, pH 7.5, 1 mM DTT, 0.1 mM Na3 VO4, 5 mM NaF at 4° C. overnight with three changes of buffer. The gel was then incubated at room temperature in 30 mL reaction buffer (25 mM Tris, pH 7.5, 2 mM EGTA, 12 mM MgCl2, 1 mM DTT, 0.1 mM Na3 VO4) with 200 nM ATP plus 50 μCi γ-^32 P-ATP (3000 Ci/mmole) for 60 minutes. The reaction was stopped by transferring the gel into 5% TCA (w/v)/1% NaPPi (w/v). The unincorporated γ-^32 P-ATP was removed by washing in the same solution for at least 6 hours with 5 changes of buffer. The gel was dried onto 3 MM paper and exposed to Kodak XAR-5 film. Prestained size markers (Bio-Rad, CA) were used to calculate the size of the kinases. Quantitation of the relative kinase activities were done using a phosphoimager (Molecular Dynamics Inc., CA).

p48 SIP kinase [2] = molecular target: T1, p48 SIP kinase (Nicotiana tabacum, UniProt A0A1S3Z5Y0); test: In-solution kinase assay: effects of various reagents on p48 SIP kinase activity; assay type: biochemical, tobacco; conditions: for effect on p48 SIP kinase activity: partially purified p48 SIP kinase; for activity at 5000 µM: 5 mM
T1 construct: endogenous in cells; host or cells: SA-treated tobacco suspension culture cells (purified through the poly-L-lysine agarose step)
T1 sequence (A0A1S3Z5Y0 whole entry): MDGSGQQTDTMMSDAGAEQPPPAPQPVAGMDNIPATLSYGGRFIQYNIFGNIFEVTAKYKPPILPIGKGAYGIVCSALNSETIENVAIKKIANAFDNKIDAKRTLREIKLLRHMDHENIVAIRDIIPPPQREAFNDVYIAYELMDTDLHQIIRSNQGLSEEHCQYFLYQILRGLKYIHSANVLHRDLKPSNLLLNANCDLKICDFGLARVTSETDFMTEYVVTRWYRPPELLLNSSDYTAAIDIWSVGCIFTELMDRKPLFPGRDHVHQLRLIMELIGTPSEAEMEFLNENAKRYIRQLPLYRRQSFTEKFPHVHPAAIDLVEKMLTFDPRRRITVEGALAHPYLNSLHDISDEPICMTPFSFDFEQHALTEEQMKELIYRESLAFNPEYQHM
Method: (§1) Unless specifically indicated, assays were performed at room temperature for 20 minutes in a final volume of 15 μl containing 0.5 mg/mL of MBP, 50 μM of γ-^32 P-ATP (about 3000-6000 cpm/pmole), 25 mM Tris pH 7.5, 5 mM MgCl2, 1 mM EGTA, 1 mM DTT, and enzyme. The reaction was terminated by the addition of equal volume of 150 mM H3 PO4. Twenty μL of the mixture was spotted onto an 8-well phosphocellulose filter strip (Pierce, Ill.). After washing with 150 mM H3 PO4 extensively, the phospho-protein was eluted with 0.4 mL of 1 N NaOH, and the radioactivity was determined by liquid scintillation counting. Total cpm in the reaction mixture was also determined in order to calculate the specific activity of the enzyme preparation. One unit of p48 SIP kinase was defined as the amount of enzyme that will catalyze the transfer of 1 pmole of phosphate from ATP to MBP in 1 minute.
^a For each reagent, a dose response curve was measured under standar
assay conditions. About 0.5 unit of enzyme was used for each reaction.
Control was the enzyme activity in the absence of reagent.

p48 SIP kinase [3] = molecular target: T1, p48 SIP kinase; test: Kinetic properties, substrates, cofactors and pH dependence of p48 SIP kinase (in-solution kinase assay); assay type: biochemical, tobacco; conditions: for metal ion requirement of the enzyme: FIG. 10B; for use as phospho-donor / phosphate donor: data not shown
Method: FIGS. 10A and 10B show a pair of graphs illustrating the effect of pH (FIG. 10A), Mg^2+ and Mn^2+ (FIG. 10B) on p48 SIP kinase activity. Approximately 0.5 unit of partially purified enzyme was used in each test. Buffers used for measuring the effect of pH were 50 mM 2-[N-morpholino]ethanesulfonic acid (Mes, pH 5.0-8.0, .circle-solid.), 50 mM Tris (pH 6.0-9.5, .tangle-solidup.), and 50 mM 3-[cyclohexylamino]-1-propanesulfonic acid (Caps, pH 9.0-12.0, .box-solid.). For testing the effects of Mg^2+ (.circle-solid.), and Mn^2+ (.tangle-solidup.), buffer B from the last purification step was first exchanged to Mg^2+ -free buffer using a desalting column. Mg^2+ was not added in reactions for testing the effect of Mn^2+.
FIG. 11 is a graph depicting the protein substrate preference of the p48 SIP kinase. About 0.5 unit of partially purified enzyme was used in each reaction. The assay conditions were as described below in Example 1, except various concentrations of MBP (.circle-solid.), histone (.tangle-solidup.), and casein (.box-solid.) were used.
as §1

[4] = molecular target: p48 SIP kinase (salicylic acid-induced protein kinase), activated form from SA- or H2O2-treated tobacco cells, in extracts or purified (tobacco (Nicotiana tabacum cv Xanthi nc))
[5] = system: PR gene expression and enhanced disease resistance; conditions: Conrath et al., 1995; cited from earlier work
p48 SIP kinase [6] = test: Treatment of p48 SIP kinase with phosphatases; assay type: biochemical, tobacco; conditions: okadaic acid against PP1; Na3 VO4 against YOP
Method: FIG. 13 is a histogram showing inactivation of p48 SIP kinase by phosphatase treatment. Approximately 20 units of the SIP kinase was treated with either the serine/threonine-specific phosphatase PPI (0.1 units) or the tyrosine-specific protein phosphatase YOP (0.5 units) for 10 min (bars 2 to 5) or 30 min (bars 7 to 10) at 30° C. in the presence or absence of a phosphatase inhibitor. Bars 1 and 6 represent the control without phosphatase or phosphatase inhibitor; bars 2 and 7, PPI; bars 3 and 8, PPI plus okadaic acid (1 μM); bars 4 and 9, YOP; bars 5 and 10, YOP plus Na3 VO4 (1 mM). Before assaying for SIP kinase activity, the phosphatase inhibitors were added to all of the reactions to the same final concentrations.
The phosphatase inhibitors present in the purified p48 SIP kinase preparation were first removed by dialysis against buffer B lacking β-glycerophosphate and Na3 VO4 in a 0.5-mL 10 K dialysis cassette (Slide-A-Lyzer; Pierce). For treatment with serine/threonine protein phosphatase PP1 (Calbiochem, San Diego, Calif.), MnCl2, DTT, and BSA were added to aliquots of the SIP kinase preparation to final concentrations of 200 μm, 5 mM and 100 μg/mL respectively. Then 0.1 unit of PP1 was added, and the reaction mixture was incubated at 30° C. in the presence or absence of 1 μM of the phosphatase inhibitor okadaic acid (Calbiochem). […]

[7] = 20 min, pH 7.5, read-out: Relative Activity

Compound: O=C(O)c1cccc(O)c1 [3-HBA, 3-hydroxybenzoic acid]
activation of 48 kDa (p48 SIP) kinase (p48 SIP kinase [1]): poor activators

Relative Activity (p48 SIP kinase [2]; 0.5 mM, 20 min): 100 % of control
Relative Activity (p48 SIP kinase [2]; 5.0 mM, 20 min): 50 % of control
effect on p48 SIP kinase activity (p48 SIP kinase [2]): inhibited the enzyme
calcium requirement for activity (p48 SIP kinase [3]): lacks a calcium requirement for activity
Compound: [Ca+2] [Ca^2+]

Compound: [Zn+2] [Zn^2+]
Relative Activity (p48 SIP kinase [2]; 0.10 mM, 20 min): 100 % of control
Relative Activity (p48 SIP kinase [2]; 0.25 mM, 20 min): 50 % of control
effect on p48 SIP kinase activity (p48 SIP kinase [2]): inhibited the enzyme

Compound: [Mg+2] [Mg^2+]
metal ion requirement of the enzyme (p48 SIP kinase [3]): absolute requirement
MgCl2 concentration up to which kinase activity was strongly stimulated (p48 SIP kinase [3]; total concentration): ≤ 2 mM

Relative Activity % of control (% of control at 500 µg mL^-1) [4]: 100
Compound: Poly-L-glutamine [listing 1 of 2 here]

metal ion requirement of the enzyme (p48 SIP kinase [3]): could not substitute for Mg^2+
Compound: [Mn+2] [Mn^2+]

Compound: O=C(O)c1ccc(Cl)cc1O [4-CSA, 4-chloroSA]
induction of PR gene expression and enhanced disease resistance [5]: induce PR gene expression and enhanced disease resistance in tobacco
activation of 48 kDa (p48 SIP) kinase (p48 SIP kinase [1]): activated the SIP kinase to similar extents as SA
duration of SIP kinase activation relative to SA (p48 SIP kinase [1]): more sustained activation of the SIP kinase than SA

Relative Activity (p48 SIP kinase [2]; 50 μg mL^-1, 20 min): 50 % of control
effect on p48 SIP kinase activity (p48 SIP kinase [2]): showed inhibitory effects
Compound: Heparin

activity at 10000 µM (p48 SIP kinase [2]; 20 min, pH 7.5, 10 mM, read-out: Relative Activity): 100%
effect on p48 SIP kinase activity (p48 SIP kinase [2]): no effect on its activity
Compound: O=C(O)CN(CCOCCOCCN(CC(=O)O)CC(=O)O)CC(=O)O [EGTA]

Compound: Protamine
Relative Activity (p48 SIP kinase [2]; 25 μg mL^-1): 50 % of control
effect on p48 SIP kinase activity (p48 SIP kinase [2]): showed inhibitory effects

Compound: Poly-L-lysine [listing 1 of 2 here]
Relative Activity (p48 SIP kinase [2]; 25 μg mL^-1, 20 min): 50 % of control
effect on p48 SIP kinase activity (p48 SIP kinase [2]): showed inhibitory effects

Relative Activity % of control (% of control at 25 µg mL^-1) [4]: 50
Compound: protamine

Relative Activity (p48 SIP kinase [2]; 500 μg mL^-1, 20 min): 100 % of control
Compound: Poly-L-glutamine [listing 2 of 2 here]
effect on p48 SIP kinase activity (p48 SIP kinase [2]): showed no effect at the concentrations tested

Compound: [Na+].[Na+].[Na+].[O]=[V]([O-])([O-])[O-] [Na3 VO4]
prevention of phosphatase inactivation of SIP kinase (p48 SIP kinase [6]): could be prevented

Compound: CN[C@@H]1C[C@H]2O[C@@](C)([C@@H]1OC)n1c3ccccc3c3c4c(c5c6ccccc6n2c5c31)C(=O)NC4 [Staurosporine, staurosporine]
IC50 (p48 SIP kinase [2]): 60 nM
activity at 0.06 µM (p48 SIP kinase [2]; [7]): 50%

Compound: COC(=O)[C@@]1(O)C[C@H]2O[C@]1(C)n1c3ccccc3c3c4c(c5c6ccccc6n2c5c31)C(=O)NC4 [K-252a]
IC50 (p48 SIP kinase [2]): 12 nM
activity at 0.012 µM (p48 SIP kinase [2]; [7]): 50%

Compound: O=C(O)c1ccc(O)cc1 [4-HBA]
activation of 48 kDa (p48 SIP) kinase (p48 SIP kinase [1]): poor activators

use as phospho-donor / phosphate donor (p48 SIP kinase [3]): could not use
use as phospho-donor / phosphate donor (p48 SIP kinase [3]; listed as GTP): unable to use GTP as a phosphate donor
Compound: Nc1nc2c(ncn2[C@@H]2O[C@H](COP(=O)(O)OP(=O)(O)OP(=O)(O)O)[C@@H](O)[C@H]2O)c(=O)[nH]1 [Mg^2+ -GTP]

Compound: O=C(O)c1cc(Cl)ccc1O [5-CSA]
induction of PR gene expression and enhanced disease resistance [5]: induce PR gene expression and enhanced disease resistance in tobacco
activation of 48 kDa (p48 SIP) kinase (p48 SIP kinase [1]): activated the SIP kinase to similar extents as SA
duration of SIP kinase activation relative to SA (p48 SIP kinase [1]): more sustained activation of the SIP kinase than SA

Relative Activity (p48 SIP kinase [2]; 500 μg mL^-1, 20 min): 50 % of control
effect on p48 SIP kinase activity (p48 SIP kinase [2]): showed inhibitory effects
Compound: Poly-L-glutamate [listing 1 of 2 here]

activity at 1000 µM (p48 SIP kinase [2]; 20 min, pH 7.5, 1 mM, read-out: Relative Activity): 100%
Compound: NCCCCNCCCN [Spermidine, spermidine]
effect on p48 SIP kinase activity (p48 SIP kinase [2]): showed no effect at the concentrations tested

activity at 5000 µM (p48 SIP kinase [2]; [7]): 50%
Compound: CN(C)C(=O)/N=N/C(=O)N(C)C [Diamide]

Relative Activity % of control (% of control at 500 µg mL^-1) [4]: 50
Compound: Poly-L-glutamate [listing 2 of 2 here]

activity at 20 µM (p48 SIP kinase [2]; 20 min, pH 7.5, 20 μM, read-out: Relative Activity): 100%
effect on p48 SIP kinase activity (p48 SIP kinase [2]): no effect on its activity
Compound: O=c1c(-c2ccc(O)cc2)coc2cc(O)cc(O)c12 [Genistein, genistein]

Relative Activity % of control (% of control at 25 µg mL^-1) [4]: 50
Compound: Poly-L-lysine [listing 2 of 2 here]

Compound: [Na+] [Na^+]
Relative Activity (p48 SIP kinase [2]; 100 mM, 20 min): 100 % of control
Relative Activity (p48 SIP kinase [2]; 750 mM, 20 min): 50 % of control

activity at 5000 µM (p48 SIP kinase [2]; [7]): 100%
Compound: OC(CS)C(O)CS (stereo not drawn) [DTT]

Vmax (p48 SIP kinase [3]): 0.39 µmol/min/mg
Km (p48 SIP kinase [3]; Mg^2+ -ATP): 24 µM
Compound: Nc1ncnc2c1ncn2[C@@H]1O[C@H](COP(=O)(O)OP(=O)([O-])OP(=O)([O-])O)[C@@H](O)[C@H]1O.[Mg+2] [Mg^2+ -ATP]
